This is an account of results in paper PMC6383948, “Evaluation of a class of isatinoids identified from a high-throughput screen of human kinase inhibitors as anti-Sleeping Sickness agents” (PLoS Neglected Tropical Diseases, 2019).

The structures appear in SMILES notation. ≈ marks a conversion by molar mass, not a printed value. Read-outs that look alike come from different tables or passages of the source.

Broadly, the hepatocyte CLint is the capacity of the preparation to metabolise the compound, expressed as a volume cleared per time. The term solubility denotes the concentration that dissolves in the medium under given conditions.

A short description of one series: Rat hepatocyte CLint. It counts as in vitro ADME. Conditions: rat hepatocytes. How it is done:
In vitro intrinsic clearance determined from rat hepatocytes using a standard approach. Following incubation and preparation, the samples are analyzed using LC/MS/MS.

Series [1] is described as follows: Human plasma protein binding (equilibrium dialysis). The class given is in vitro ADME. Conditions: pH 7.4, read-out: PPB (converted). The protocol:
PPB is determined using equilibrium dialysis (RED device) to separate free from bound compound. The amount of compound in plasma (10 µM initial concentration) and in dialysis buffer (pH 7.4 phosphate buffer) is measured by LC-MS/MS after equilibration at 37 °C in a dialysis chamber. The fraction unbound (fu) is reported.
Background: Equilibrium dialysis compares concentrations on both sides of a semipermeable membrane.

The next series deals with T. b. brucei. The experiment in a line: T. b. brucei growth inhibition EC50 assay (resazurin, 72 h). It counts as cell-based, Trypanosoma brucei brucei Lister 427. Conditions: for EC50: Trypanosoma brucei. The protocol: Mid-log phase growth T. b. brucei was diluted to a working cell density of 2,750 cells/mL and 90 μL/well dispensed into 96-well flat-bottom transparent assay plates (Nunc). Ten μL/well from intermediate plates were added. The final top concentration of compounds was 40 μM in 0.4% DMSO per well.
Assay plates were incubated for 72 h at 37°C and 5% CO2. Four hours prior to the end of the incubation, 20 μL of a 440 μM resazurin solution in prewarmed HMI-9 was added to each well and incubated for another 4 h. Fluorescence was then measured in an Infinite F200 plate reader (Tecan) at 550 nm (excitation filter) and 590 nm (emission filter). A 4-parameter equation was employed to fit the dose-response curves and determine of EC50 using the SigmaPlot 13.0 software. Assays were performed in duplicate at least twice, to achieve a minimal n = 3 per dose response.
Bloodstream Trypanosoma brucei brucei Lister 427 was cultured in Hirumi’s modified Iscove’s medium (HMI-9), supplemented with 10% heat-inactivated FBS, at 37 °C and 5% CO2 in T-25 vented flask (Corning®).
For dose-response experiments, compound plates were prepared for each analogue by serial 3-fold dilutions in 100% DMSO. Five concentration points (mammalian cytotoxicity) or ten concentration points (parasite growth inhibition), were made in 96-well transparent Nunclon plates. Pentamidine is routinely included in compound plates as internal quality control, and plates are stored sealed at -20 °C for no more than four weeks.
In general terms: The colour change of resazurin is a common sign of viable cells or microbes.

In another series the test system is T. cruzi. Nature of the series: β-D-Galactosidase transgenic T. cruzi assay (amastigote-infected L6 cells). It counts as cell-based, T. cruzi Tulahuen C4 strain. To be noted: Trypanosoma cruzi, 96 h, read-out: T. cruzi pEC50 (converted). How it is done: The T. cruzi Tulahuen C4 strain, expressing the β-galactosidase gene (LacZ) and L6 rat skeletal muscle cells, used as host cells, were cultured in RPMI-1640 supplemented with 10% iFBS, 2 mM L-glutamine, 100 U/mL penicillin, and 100 μg/mL streptomycin at 37 °C and 5% CO2.
A Thermo Scientific Multidrop Combi dispenser (MTX Lab Systems, Vienna, VA) was used to dispense 90 μL of T. cruzi amastigote–infected L6 cell culture (4×10^3 infected L6 cells per well) into 96-well Corning assay plates (Corning Inc., Corning, NY) already containing 10 μL of the compounds to be screened and controls. The plates were incubated at 37 °C for 96 h. Then, 30 μL of 100 μM CPRG and 0.1% NP40 diluted in PBS were added to each well, and the plates were incubated for 4 h at 37 °C in the dark. Absorbance at 585 nm was measured in a Vmax kinetic microplate reader ([…]). Compound activities were normalized using the in-plate negative (benznidazole at 10 μg/mL) and positive (0.2% DMSO) growth controls.

The next series concerns MRC5-SV2 cell line. The experiment in a line: Cytotoxicity assay in MRC5 (resazurin, 48 h). The class given is cell-based, human. Conditions: MRC5 toxicity. The protocol: For dose-response experiments, compound plates were prepared for each analogue by serial 3-fold dilutions in 100% DMSO. Five concentration points (mammalian cytotoxicity) or ten concentration points (parasite growth inhibition), were made in 96-well transparent Nunclon plates. Pentamidine is routinely included in compound plates as internal quality control, and plates are stored sealed at -20 °C for no more than four weeks. Intermediate plates were made as described, adding 95 μL of DMEM complete media to 5 μL of compound per well setting a 5% DMSO amount. Log-phase MRC5 cells were removed from a T-75 TC flask using TrypLE® Express (Thermo®) and dispersed by gentle pipetting. Cell density was adjusted to working concentration in prewarmed DMEM medium: 25,000 cells in 90 μL of culture were plated in 96-well transparent Nunclon plates and let to settle for 24 h at 37 °C and 5% CO2. After settling incubation, 10 μL of fresh made intermediate plate were added per well: final maximal concentration for compounds was 50 μM in 0.5% DMSO per well. […] Fluorescence was read in an Infinite F200 plate reader (Tecan®) at 550 nm (excitation filter) and 590 nm (emission filter). A 4-parameter equation was used to fit the dose-response curves and determination of EC50 by SigmaPlot ® 13.0 software. Assays were performed in duplicate at least twice for positive compounds, to achieve a minimal n=3 per dose response.

The subject of a further series is L. donovani. The experiment in a line: EC50 in L. donovani (infected THP-1 macrophages, luciferase). It counts as cell-based, Leishmania donovani MHOM/ET/67/HU3. Conditions: Leishmania donovani, 72 h, read-out: L. donovani pEC50 (converted). How it is done: Leishmania donovani MHOM/ET/67/HU3 cells with the luciferase gene integrated into the parasite genome[1] were grown at 28 °C in RPMI 1640-modified medium (Invitrogen) supplemented with 20% FBS with […] of hygromycin B.
The Human myelomonocytic cell line THP-1 was grown at 37 °C and 5% CO2 in RPMI-1640 supplemented with 10% iFBS, 2 mM […], 100 U/mL penicillin and […] streptomycin. 3 x 10^4 THP-1 cells per well in 96-well plates were differentiated to macrophages with 20 ng/mL of PMA treatment for 48 h followed by 24 h of culture in fresh medium.
Macrophage-differentiated THP-1 cells were infected at a macrophage/parasite ratio of 1/10 with stationary L. donovani promastigotes for 24 h at 35 °C and 5% CO2, and extracellular parasites were removed by washing with PBS. Infected cell cultures were then incubated with different compounds concentrations at 37 °C for 72 h. Luminescence was measured using the Promega kit luciferase assay system (Promega, Madison, WI). Assays were performed in duplicate at least twice, to achieve a minimal n=3 per dose response.

Series [2] is described as follows: Human liver microsomal CLint. Conditions: for microsomal CLint: human, liver microsomes, read-out: HLM Clint. The class given is in vitro ADME. The protocol: In vitro intrinsic clearance determined from human liver microsomes using a standard approach. Following incubation and preparation, the samples are analyzed using LC/MS/MS.
For orientation: Microsomes from liver hold many membrane-bound enzymes, among them those of drug oxidation.

The nature of series [3]: Aqueous pH 7.4 solubility. Conditions: pH 7.4 phosphate buffer, 25 °C, 20-24 h, read-out: Aq. Solubility. The class given is physicochemical. How it is done:
Compounds are dried down from 10 mM DMSO solutions using centrifugal evaporation technique. Phosphate buffer (0.1 M pH 7.4) added and StirStix inserted in the glass vials, shaking is then performed at a constant temperature of 25 °C for 20-24 h. This step is followed by double centrifugation with a tip wash in between, to ensure that no residues of the dried compound are interfering. The solutions are diluted before analysis and quantification using LC/MS/MS is performed.

Setting [4] is: 72 h, resazurin, error within ±0.20 (Table 2) or ±0.08 (Table 3) log units, read-out: T.b.b. pEC50 (converted).
The mark [5] stands for this setting: aqueous buffer, thermodynamic from solid.

In the series “Rat hepatocyte CLint”, `CN(C)S(=O)(=O)c1ccc(N/N=C2\C(=O)Nc3ccccc32)cc1` [NEU-2118, (Z)-N,N-Dimethyl-4-(2-(2-oxoindolin-3-ylidene)hydrazinyl)benzenesulfonamide] had a hepatocyte CLint of 146 µL/min/1e6 cells. Besides, the fraction unbound at 10 µM in series [1] is 0.01. Besides, the EC50 in the series with T. b. brucei (setting [4]) is 1580 nM; with T. cruzi, more than 10000 nM; in the series on L. donovani, more than 10000 nM. The “MRC5 pTC50” value with MRC5-SV2 cell line is less than 4.3. For the same molecule, in series [2], the microsomal CLint came to 38.2 µL/min/mg. Further, the solubility in series [3] (setting [5]) is less than 1 µM.

Turning to `CNS(=O)(=O)c1ccc(N/N=C2\C(=O)Nc3ccccc32)cc1` [NEU-2124, (Z)-N-Methyl-4-(2-(2-oxoindolin-3-ylidene)hydrazinyl)benzenesulfonamide], in “Rat hepatocyte CLint”, the hepatocyte CLint is 36.4 µL/min/1e6 cells. Further, in series [1], the fraction unbound at 10 µM is 0.02. The EC50 with T. b. brucei (setting [4]) was 5010 nM; in the series on T. cruzi, more than 10000 nM; with L. donovani it was more than 10000 nM. Also, the “MRC5 pTC50” value in the series on MRC5-SV2 cell line is less than 4.3. In addition, in series [2], the microsomal CLint worked out at 20.3 µL/min/mg. Moreover, the solubility was less than 39 µM in series [3] (setting [5]) and more than 10 µM in series [3].

In the series “Rat hepatocyte CLint”, `CNS(=O)(=O)c1ccc(N/N=C2\C(=O)Nc3cccc(C=C(C)C)c32)cc1` [NEU-4391, (Z)-N-Methyl-4-(2-(4-(2-methylprop-1-en-1-yl)-2-oxoindolin-3-ylidene)hydrazinyl)benzenesulfonamide] returned a hepatocyte CLint of 103 µL/min/1e6 cells. Besides, in series [1], the fraction unbound at 10 µM was less than 0.04. In the series with T. b. brucei, the “activity against T. brucei” value is “sub-micromolar activity”. Further, the EC50 was 158 nM with T. b. brucei (setting [4]); 84 nM with T. b. brucei (T. brucei, read-out: EC50); 2240 nM with T. cruzi; more than 5010 nM in the series on L. donovani. Besides, in the series on MRC5-SV2 cell line, the “MRC5 pTC50” value is given as less than 4.3. Moreover, in series [2] (human liver microsomes), the “HLM Clint” value is 8.63 µL/min/mg. Further, the microsomal CLint in series [2] was 8.6 µL/min/mg. Besides, the solubility in series [3] turned out to be 4 µM (≈ 1.54 µg/mL).
